The molecules below were run against T1, cloned human dopamine D3 receptors (Homo sapiens, UniProt P35462) (assay: [N-Methyl-3H]Spiroperidol binding to cloned human dopamine D3 receptors). Details: read-out: D3 Ki.
T1 construct: expressed in transfected cells; membrane homogenate
In short: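 Stably transfected CHO cells expressing cloned human D3 receptor were used as membranes homogenized in 10% DMSO. Ligand was [N-methyl-3H]spiroperidol displacement.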

T1 sequence (P35462 whole entry): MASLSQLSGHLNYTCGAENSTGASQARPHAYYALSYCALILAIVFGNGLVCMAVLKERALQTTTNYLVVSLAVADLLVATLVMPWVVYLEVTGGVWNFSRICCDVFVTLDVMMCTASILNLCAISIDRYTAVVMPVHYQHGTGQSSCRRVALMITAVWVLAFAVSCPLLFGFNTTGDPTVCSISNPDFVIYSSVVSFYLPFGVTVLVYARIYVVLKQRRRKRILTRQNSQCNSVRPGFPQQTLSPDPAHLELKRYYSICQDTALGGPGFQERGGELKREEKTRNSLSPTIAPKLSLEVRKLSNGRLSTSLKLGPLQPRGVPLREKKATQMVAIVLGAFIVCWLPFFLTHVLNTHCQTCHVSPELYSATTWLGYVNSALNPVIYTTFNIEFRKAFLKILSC

| Ki | SMILES |
| --- | --- |
| 0.038 µM | O=C(NCCSc1ccc(Cl)cc1)[C@@H]1C[C@H]1CN1CCN(c2csc3cc(C(F)(F)F)ccc23)CC1 [compound 832497] |
| 0.0703 µM | O=C(NCCN1CCNC1=O)[C@@H]1C[C@H]1CN1CCN(c2csc3cc(C(F)(F)F)ccc23)CC1 [compound 832498] |
| 0.0123 µM | O=C(NCCCN1CCCCCC1)[C@@H]1C[C@H]1CN1CCN(c2csc3cc(C(F)(F)F)ccc23)CC1 [compound 832511] |
| 0.0157 µM | Cc1nc(Cl)c(Cl)n1CCCNC(=O)[C@@H]1C[C@H]1CN1CCN(c2csc3cc(C(F)(F)F)ccc23)CC1 [compound 832512] |
| 0.0975 µM | O=C(NCCc1ccccc1)C1(CCN2CCN(c3csc4cc(C(F)(F)F)ccc34)CC2)CC1 [compound 832519] |
| 0.00185 µM | CN1CCC(N(C)C(=O)[C@@H]2C[C@H]2CN2CCN(c3csc4cc(C(F)(F)F)ccc34)CC2)CC1 [compound 832577] |
| 0.00629 µM | CN1CCN(CCCNC(=O)[C@@H]2C[C@H]2CN2CCN(c3csc4cc(C(F)(F)F)ccc34)CC2)CC1 [compound 832579] |
| 0.00161 µM | O=C(NC1CCN(Cc2ncc[nH]2)CC1)[C@@H]1C[C@H]1CN1CCN(c2csc3cc(C(F)(F)F)ccc23)CC1 [compound 832583] |
| 0.0368 µM | O=C([C@@H]1C[C@H]1CN1CCN(c2csc3cc(C(F)(F)F)ccc23)CC1)N1CCN(CCO)CC1 [compound 832735] |
| 0.00542 µM | O=C(NC1CCN(Cc2ccc(Cl)cc2)CC1)[C@@H]1C[C@H]1CN1CCN(c2csc3cc(C(F)(F)F)ccc23)CC1 [compound 832737] |
| 0.00289 µM | COc1ccccc1CN1CCC(NC(=O)[C@@H]2C[C@H]2CN2CCN(c3csc4cc(C(F)(F)F)ccc34)CC2)CC1 [compound 832739] |
| 0.0302 µM | O=C(NC1CCN(Cc2cccc(Cl)c2)CC1)[C@@H]1C[C@H]1CN1CCN(c2csc3cc(C(F)(F)F)ccc23)CC1 [compound 832740] |
| 0.00603 µM | O=C(NC1CCN(Cc2ccccc2Cl)CC1)[C@@H]1C[C@H]1CN1CCN(c2csc3cc(C(F)(F)F)ccc23)CC1 [compound 832741] |
| 0.00305 µM | Cc1cccc(CN2CCC(NC(=O)[C@@H]3C[C@H]3CN3CCN(c4csc5cc(C(F)(F)F)ccc45)CC3)CC2)c1 [compound 832789] |
| 0.0182 µM | CC(C)N1CCN(C(=O)[C@@H]2C[C@H]2CN2CCN(c3csc4cc(C(F)(F)F)ccc34)CC2)CC1 [compound 832833] |
| 0.0122 µM | C=CCN1CCN(C(=O)[C@@H]2C[C@H]2CN2CCN(c3csc4cc(C(F)(F)F)ccc34)CC2)CC1 [compound 832834] |
| 0.0181 µM | COCCN1CCN(C(=O)[C@@H]2C[C@H]2CN2CCN(c3csc4cc(C(F)(F)F)ccc34)CC2)CC1 [compound 832835] |
| 0.0143 µM | O=C(NCC1CCNCC1)[C@@H]1C[C@H]1CN1CCN(c2csc3cc(C(F)(F)F)ccc23)CC1 [compound 832859] |
| 0.0554 µM | O=C(NCc1cccc(OC(F)(F)F)c1)[C@@H]1C[C@H]1CN1CCN(c2csc3cc(C(F)(F)F)ccc23)CC1 [compound 833062] |
| 0.692 µM | CC(=O)N1CCC(CNC(=O)[C@@H]2C[C@H]2CN2CCN(c3csc4cc(C(F)(F)F)ccc34)CC2)CC1 [compound 833065] |
| 0.0009 µM | O=C([C@@H]1C[C@H]1CN1CCN(c2csc3cc(C(F)(F)F)ccc23)CC1)N1CCC[C@@H](Cn2ccnc2)C1 [compound 833097] |
| 0.00884 µM | O=C([C@@H]1C[C@H]1CN1CCN(c2csc3cc(C(F)(F)F)ccc23)CC1)N1CCC[C@H](Cn2ccnc2)C1 [compound 833098] |

Further lines, the molecule ahead of its results:

| SMILES | Ki |
| --- | --- |
| CC(C)(C)OC(=O)N1CCC(NC(=O)[C@@H]2C[C@H]2CN2CCN(c3csc4cc(C(F)(F)F)ccc34)CC2)CC1 [compound 832499] | 0.0197 µM |
| O=C([C@@H]1C[C@H]1CN1CCN(c2csc3cc(C(F)(F)F)ccc23)CC1)N1CCC(N2CCCC2)CC1 [compound 832510] | 0.025 µM |
| CC[C@H]1CC[C@H](NC(=O)C2(CCN3CCN(c4csc5cc(C(F)(F)F)ccc45)CC3)CC2)CC1 [compound 832517] | 0.173 µM |
| O=C(NCCCN1CCOCC1)C1(CCN2CCN(c3csc4cc(C(F)(F)F)ccc34)CC2)CC1 [compound 832518] | 0.0982 µM |
| O=C(N[C@H]1CC[C@H](O)CC1)C1(CCN2CCN(c3csc4cc(C(F)(F)F)ccc34)CC2)CC1 [compound 832520] | 0.141 µM |
| O=C([C@@H]1C[C@H]1CN1CCC(c2noc3ccsc23)CC1)N1CCC(c2nc3ccccc3s2)CC1 [compound 832527] | 0.0454 µM |
| O=C(NCCS(=O)(=O)c1cccc2c(Cl)cccc12)[C@@H]1C[C@H]1CN1CCC(c2noc3ccsc23)CC1 [compound 832528] | 0.0485 µM |
| O=C(NCCN1CCNC1=O)[C@@H]1C[C@H]1CN1CCC(c2noc3ccsc23)CC1 [compound 832529] | 0.146 µM |
| O=C(NCCCCc1cccnc1)[C@@H]1C[C@H]1CN1CCC(c2noc3ccsc23)CC1 [compound 832530] | 0.016 µM |
| O=C([C@@H]1C[C@H]1CN1CCC(c2noc3ccsc23)CC1)N1CCC(n2c(=O)[nH]c3ccccc32)CC1 [compound 832531] | 0.0677 µM |
| O=C([C@@H]1C[C@H]1CN1CCC(c2noc3ccsc23)CC1)N1CCN(Cc2ccc(Cl)c(Cl)c2)CC1 [compound 832532] | 0.0144 µM |
| O=C(NCCCn1ccnc1)[C@@H]1C[C@H]1CN1CCN(c2nn(-c3ccc(F)cc3)c3ccsc23)CC1 [compound 832565] | 0.00145 µM |
| O=C(N[C@H]1CC[C@H](O)CC1)[C@@H]1C[C@H]1CN1CCN(c2nn(-c3ccc(F)cc3)c3ccsc23)CC1 [compound 832566] | 0.00176 µM |
| CN(C)CCN1CCN(C(=O)[C@@H]2C[C@H]2CN2CCN(c3csc4cc(C(F)(F)F)ccc34)CC2)CC1 [compound 832580] | 0.0288 µM |
| O=C([C@@H]1C[C@H]1CN1CCN(c2csc3cc(C(F)(F)F)ccc23)CC1)N1CCN(CCOCCO)CC1 [compound 832581] | 0.0673 µM |
| CC(C)NC(=O)CN1CCN(C(=O)[C@@H]2C[C@H]2CN2CCN(c3csc4cc(C(F)(F)F)ccc34)CC2)CC1 [compound 832582] | 0.025 µM |
| O=C(NCCCn1ccnc1)[C@@H]1C[C@H]1CN1CCN(c2nn(-c3ccccc3)c3ccsc23)CC1 [compound 832592] | 0.00729 µM |
| O=C(NCCCn1ccnc1)[C@@H]1C[C@H]1CN1CCN(c2nn(-c3ccc(C(F)(F)F)cc3)c3ccsc23)CC1 [compound 832634] | 0.00763 µM |
| O=C(N[C@H]1CC[C@H](O)CC1)[C@@H]1C[C@H]1CN1CCN(c2nn(-c3ccc(C(F)(F)F)cc3)c3ccsc23)CC1 [compound 832648] | 0.0208 µM |
| O=C(NCCCN1CCCCC1)[C@@H]1C[C@H]1CN1CCC(c2cc3ccccc3s2)CC1 [compound 832714] | 0.0124 µM |
| O=C([C@@H]1C[C@H]1CN1CCC(c2cc3ccccc3s2)CC1)N1CCC(N2CCCC2)CC1 [compound 832715] | 0.166 µM |
| O=C(NC1CCN(Cc2ccc(Cl)c(Cl)c2)CC1)[C@@H]1C[C@H]1CN1CCC(c2cc3ccccc3s2)CC1 [compound 832716] | 0.00754 µM |

| SMILES | Ki |
| --- | --- |
| O=C([C@@H]1C[C@H]1CN1CCC(c2noc3ccsc23)CC1)N1CCC(Oc2ccc(Cl)cc2)CC1 [compound 832723] | 0.054 µM |
| COc1ccccc1CN1CCC(NC(=O)[C@@H]2C[C@H]2CN2CCC(c3noc4ccsc34)CC2)CC1 [compound 832724] | 0.00144 µM |
| O=C(NCCc1ccc(F)cc1)[C@@H]1C[C@H]1CN1CCC(c2noc3ccsc23)CC1 [compound 832725] | 0.00422 µM |
| O=C(NCCc1cccc(F)c1)[C@@H]1C[C@H]1CN1CCC(c2noc3ccsc23)CC1 [compound 832726] | 0.00705 µM |
| O=C(NC1CCN(Cc2cccc(Cl)c2)CC1)[C@@H]1C[C@H]1CN1CCC(c2noc3ccsc23)CC1 [compound 832728] | 0.00312 µM |
| O=C(NC1CCN(Cc2ccc(Cl)cc2)CC1)[C@@H]1C[C@H]1CN1CCC(c2noc3ccsc23)CC1 [compound 832729] | 0.00167 µM |
| O=C(NC1CCN(Cc2ccccc2Cl)CC1)[C@@H]1C[C@H]1CN1CCC(c2noc3ccsc23)CC1 [compound 832730] | 0.00362 µM |
| O=C(NC1CCN(Cc2ccc(Cl)c(Cl)c2)CC1)[C@@H]1C[C@H]1CN1CCC(c2noc3ccsc23)CC1 [compound 832731] | 0.000699 µM |
| O=C(NC1CCN(Cc2ccc(F)cc2)CC1)[C@@H]1C[C@H]1CN1CCC(c2noc3ccsc23)CC1 [compound 832732] | 0.00074 µM |
| O=C(NC1CCN(CC2CCCCC2)CC1)[C@@H]1C[C@H]1CN1CCC(c2noc3ccsc23)CC1 [compound 832733] | 0.000656 µM |
| COc1ccc2c(c1)c(N1CCN(C[C@@H]3C[C@H]3C(=O)NC3CCN(CC4CCCCC4)CC3)CC1)nn2C [compound 832743] | 0.00236 µM |
| COc1ccc2c(c1)c(N1CCN(C[C@@H]3C[C@H]3C(=O)NC3CCN(CC4CC4)CC3)CC1)nn2C [compound 832744] | 0.00137 µM |
| COc1ccc2c(c1)c(N1CCN(C[C@@H]3C[C@H]3C(=O)N(C)C3CCN(C)CC3)CC1)nn2C [compound 832745] | 0.015 µM |
| Cc1cccc(CN2CCC(NC(=O)[C@@H]3C[C@H]3CN3CCC(c4noc5ccsc45)CC3)CC2)c1 [compound 832788] | 0.00184 µM |
| O=C(N[C@H]1CC[C@H](O)CC1)[C@@H]1C[C@H]1CN1CCN(c2nn(-c3ccccc3)c3ccsc23)CC1 [compound 832816] | 0.00257 µM |
| C[C@H]1CC[C@H](NC(=O)[C@@H]2C[C@H]2CN2CCN(c3nn(-c4ccccc4)c4ccsc34)CC2)CC1 [compound 832849] | 0.00112 µM |
| C[C@H]1CC[C@H](NC(=O)[C@@H]2C[C@H]2CN2CCN(c3nn(-c4ccc(F)cc4)c4ccsc34)CC2)CC1 [compound 832850] | 0.000264 µM |
| C[C@H]1CC[C@H](NC(=O)[C@@H]2C[C@H]2CN2CCN(c3nn(-c4ccc(C(F)(F)F)cc4)c4ccsc34)CC2)CC1 [compound 832881] | 0.0379 µM |
| Cn1nc(C2CCN(C[C@@H]3C[C@H]3C(=O)N[C@H]3CC[C@H](O)CC3)CC2)c2cccc(C(F)(F)F)c21 [compound 833080] | 0.0229 µM |
| Cn1nc(C2CCN(C[C@@H]3C[C@H]3C(=O)N3CCC(N4CCCCC4)CC3)CC2)c2cccc(C(F)(F)F)c21 [compound 833091] | 0.118 µM |
| Cn1nc(C2CCN(C[C@@H]3C[C@H]3C(=O)NCCCc3cccnc3)CC2)c2cccc(C(F)(F)F)c21 [compound 833092] | 0.0335 µM |
| COc1ccc2c(c1)c(N1CCN(C[C@@H]3C[C@H]3C(=O)NCCCN3CCCCC3)CC1)nn2C [compound 833120] | 0.138 µM |

Reference: patent US7772252B2, “Heterocyclic substituted carbonyl derivatives and their use as dopamine D3 receptor ligands” (Aventis Pharmaceuticals Inc., priority 2001, dated 2010)
